Earlier results, collected in PMC4619705 (PLoS ONE, 2015).

Biological target: T1, α2β3γ2L GABAARs (Homo sapiens, UniProt P18507+P28472+P47869)
T1 construct: expressed in transfected cells; host or cells: Xenopus laevis oocytes injected with capped mRNA, α2:β3:γ2L 3:1:3
Design: method as in PMID 21797842
Settings: α2β3γ2L 1:1:10 injection ratio; cited from earlier work

T1 sequence (P47869 29-451): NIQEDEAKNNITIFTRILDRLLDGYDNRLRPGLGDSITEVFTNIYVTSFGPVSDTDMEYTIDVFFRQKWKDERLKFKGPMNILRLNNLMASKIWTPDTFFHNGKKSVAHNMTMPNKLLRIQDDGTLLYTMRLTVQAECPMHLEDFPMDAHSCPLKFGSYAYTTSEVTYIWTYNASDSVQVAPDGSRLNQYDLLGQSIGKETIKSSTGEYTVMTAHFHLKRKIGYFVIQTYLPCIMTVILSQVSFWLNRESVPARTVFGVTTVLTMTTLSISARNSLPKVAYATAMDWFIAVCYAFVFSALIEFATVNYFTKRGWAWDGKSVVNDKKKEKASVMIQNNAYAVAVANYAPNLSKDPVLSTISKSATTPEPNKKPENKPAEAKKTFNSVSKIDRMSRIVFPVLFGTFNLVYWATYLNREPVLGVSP
T1 sequence (P28472 26-473): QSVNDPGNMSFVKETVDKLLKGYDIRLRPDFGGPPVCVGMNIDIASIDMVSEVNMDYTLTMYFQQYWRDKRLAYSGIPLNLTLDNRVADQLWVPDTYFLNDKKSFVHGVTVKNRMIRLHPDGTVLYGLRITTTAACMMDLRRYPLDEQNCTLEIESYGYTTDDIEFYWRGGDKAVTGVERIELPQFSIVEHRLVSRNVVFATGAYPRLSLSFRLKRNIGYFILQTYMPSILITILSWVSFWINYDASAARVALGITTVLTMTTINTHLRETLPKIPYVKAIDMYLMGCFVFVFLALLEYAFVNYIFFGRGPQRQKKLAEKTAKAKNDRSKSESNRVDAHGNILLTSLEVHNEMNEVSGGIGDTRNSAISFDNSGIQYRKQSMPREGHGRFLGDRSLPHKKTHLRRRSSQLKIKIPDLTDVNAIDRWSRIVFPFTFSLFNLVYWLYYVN
T1 sequence (P18507 40-475): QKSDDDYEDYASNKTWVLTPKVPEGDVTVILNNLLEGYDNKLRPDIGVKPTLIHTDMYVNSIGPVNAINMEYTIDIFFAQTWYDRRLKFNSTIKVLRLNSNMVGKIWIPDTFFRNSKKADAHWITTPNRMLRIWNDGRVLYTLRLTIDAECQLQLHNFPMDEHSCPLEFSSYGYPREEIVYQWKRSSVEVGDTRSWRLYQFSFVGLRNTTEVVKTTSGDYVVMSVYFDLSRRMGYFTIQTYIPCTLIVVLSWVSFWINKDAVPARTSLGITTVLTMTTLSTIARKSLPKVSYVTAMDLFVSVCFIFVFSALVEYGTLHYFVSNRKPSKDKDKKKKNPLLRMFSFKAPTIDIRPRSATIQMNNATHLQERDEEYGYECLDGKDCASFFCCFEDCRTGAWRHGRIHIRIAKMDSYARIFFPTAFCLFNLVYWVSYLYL

COc1ccccc1-c1cc(=O)c2cc(C)ccc2o1 [2’MeO6MF, 2’-methoxy-6-methylflavone]
Agonist efficacy (direct activation): full agonist
